The supplement of paper PMC12463676, “Small-molecule dissolution of stress granules by redox modulation benefits ALS models” (Nature Chemical Biology, 2025)
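Further: each temperature applied for 3 min, abundance score taken as mean log2 fold change at the two lowest temperatures, z-score obtained by mean subtraction and division by SD.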

UniProt Q06136, sequence (Q06136 whole entry): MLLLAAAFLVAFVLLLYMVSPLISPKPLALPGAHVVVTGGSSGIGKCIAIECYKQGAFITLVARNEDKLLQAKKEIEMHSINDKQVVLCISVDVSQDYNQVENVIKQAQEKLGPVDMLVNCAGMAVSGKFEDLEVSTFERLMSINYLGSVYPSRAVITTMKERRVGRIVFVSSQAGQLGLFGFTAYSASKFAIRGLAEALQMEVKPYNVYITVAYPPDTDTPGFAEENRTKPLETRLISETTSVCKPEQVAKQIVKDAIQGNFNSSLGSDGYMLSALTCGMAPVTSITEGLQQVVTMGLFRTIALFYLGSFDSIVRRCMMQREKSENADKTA
UniProt Q6IN85, sequence (Q6IN85 whole entry): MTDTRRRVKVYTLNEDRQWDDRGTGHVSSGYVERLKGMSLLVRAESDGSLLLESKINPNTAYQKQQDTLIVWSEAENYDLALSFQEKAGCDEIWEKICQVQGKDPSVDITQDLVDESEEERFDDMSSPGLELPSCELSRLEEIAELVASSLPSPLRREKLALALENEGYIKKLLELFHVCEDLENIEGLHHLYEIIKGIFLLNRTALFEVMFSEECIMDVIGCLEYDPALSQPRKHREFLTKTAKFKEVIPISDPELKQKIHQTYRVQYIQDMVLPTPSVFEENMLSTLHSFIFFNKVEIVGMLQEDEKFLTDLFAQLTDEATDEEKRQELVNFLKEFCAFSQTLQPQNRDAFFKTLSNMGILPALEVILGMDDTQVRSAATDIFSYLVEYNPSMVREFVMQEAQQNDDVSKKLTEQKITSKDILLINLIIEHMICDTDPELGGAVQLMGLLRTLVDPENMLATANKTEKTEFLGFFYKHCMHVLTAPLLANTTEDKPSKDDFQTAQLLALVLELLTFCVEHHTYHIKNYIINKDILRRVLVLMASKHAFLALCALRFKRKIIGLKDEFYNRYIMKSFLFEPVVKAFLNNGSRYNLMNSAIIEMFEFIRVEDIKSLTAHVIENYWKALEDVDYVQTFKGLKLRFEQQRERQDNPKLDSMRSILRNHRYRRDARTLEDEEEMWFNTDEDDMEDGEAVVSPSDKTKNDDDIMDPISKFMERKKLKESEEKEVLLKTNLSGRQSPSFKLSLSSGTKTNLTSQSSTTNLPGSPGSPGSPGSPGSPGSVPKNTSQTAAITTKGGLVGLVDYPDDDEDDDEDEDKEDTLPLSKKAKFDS
UniProt P62195, sequence (P62195 whole entry): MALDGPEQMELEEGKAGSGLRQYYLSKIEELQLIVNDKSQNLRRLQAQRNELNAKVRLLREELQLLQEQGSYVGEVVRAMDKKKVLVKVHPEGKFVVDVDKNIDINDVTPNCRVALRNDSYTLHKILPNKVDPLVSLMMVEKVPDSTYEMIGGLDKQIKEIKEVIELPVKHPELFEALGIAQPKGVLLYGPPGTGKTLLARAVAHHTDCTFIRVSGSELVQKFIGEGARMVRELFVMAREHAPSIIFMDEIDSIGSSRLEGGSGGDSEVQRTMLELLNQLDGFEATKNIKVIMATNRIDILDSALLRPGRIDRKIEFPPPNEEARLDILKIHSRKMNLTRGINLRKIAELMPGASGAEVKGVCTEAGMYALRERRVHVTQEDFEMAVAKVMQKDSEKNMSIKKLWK
UniProt Q8IYB1, sequence (Q8IYB1 whole entry): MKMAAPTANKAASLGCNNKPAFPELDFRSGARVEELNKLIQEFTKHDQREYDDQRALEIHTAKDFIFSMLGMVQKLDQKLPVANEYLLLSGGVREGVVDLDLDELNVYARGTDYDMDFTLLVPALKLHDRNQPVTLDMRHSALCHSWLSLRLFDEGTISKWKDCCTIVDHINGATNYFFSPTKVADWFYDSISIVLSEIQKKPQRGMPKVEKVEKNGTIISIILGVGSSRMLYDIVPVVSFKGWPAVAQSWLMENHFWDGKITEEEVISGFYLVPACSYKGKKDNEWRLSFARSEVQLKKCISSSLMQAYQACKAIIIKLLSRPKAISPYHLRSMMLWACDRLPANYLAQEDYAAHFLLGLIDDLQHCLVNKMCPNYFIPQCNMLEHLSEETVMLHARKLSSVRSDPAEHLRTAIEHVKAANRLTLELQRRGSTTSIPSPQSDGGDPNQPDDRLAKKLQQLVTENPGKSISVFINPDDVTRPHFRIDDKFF
UniProt Q9Y4G8, sequence (Q9Y4G8 whole entry): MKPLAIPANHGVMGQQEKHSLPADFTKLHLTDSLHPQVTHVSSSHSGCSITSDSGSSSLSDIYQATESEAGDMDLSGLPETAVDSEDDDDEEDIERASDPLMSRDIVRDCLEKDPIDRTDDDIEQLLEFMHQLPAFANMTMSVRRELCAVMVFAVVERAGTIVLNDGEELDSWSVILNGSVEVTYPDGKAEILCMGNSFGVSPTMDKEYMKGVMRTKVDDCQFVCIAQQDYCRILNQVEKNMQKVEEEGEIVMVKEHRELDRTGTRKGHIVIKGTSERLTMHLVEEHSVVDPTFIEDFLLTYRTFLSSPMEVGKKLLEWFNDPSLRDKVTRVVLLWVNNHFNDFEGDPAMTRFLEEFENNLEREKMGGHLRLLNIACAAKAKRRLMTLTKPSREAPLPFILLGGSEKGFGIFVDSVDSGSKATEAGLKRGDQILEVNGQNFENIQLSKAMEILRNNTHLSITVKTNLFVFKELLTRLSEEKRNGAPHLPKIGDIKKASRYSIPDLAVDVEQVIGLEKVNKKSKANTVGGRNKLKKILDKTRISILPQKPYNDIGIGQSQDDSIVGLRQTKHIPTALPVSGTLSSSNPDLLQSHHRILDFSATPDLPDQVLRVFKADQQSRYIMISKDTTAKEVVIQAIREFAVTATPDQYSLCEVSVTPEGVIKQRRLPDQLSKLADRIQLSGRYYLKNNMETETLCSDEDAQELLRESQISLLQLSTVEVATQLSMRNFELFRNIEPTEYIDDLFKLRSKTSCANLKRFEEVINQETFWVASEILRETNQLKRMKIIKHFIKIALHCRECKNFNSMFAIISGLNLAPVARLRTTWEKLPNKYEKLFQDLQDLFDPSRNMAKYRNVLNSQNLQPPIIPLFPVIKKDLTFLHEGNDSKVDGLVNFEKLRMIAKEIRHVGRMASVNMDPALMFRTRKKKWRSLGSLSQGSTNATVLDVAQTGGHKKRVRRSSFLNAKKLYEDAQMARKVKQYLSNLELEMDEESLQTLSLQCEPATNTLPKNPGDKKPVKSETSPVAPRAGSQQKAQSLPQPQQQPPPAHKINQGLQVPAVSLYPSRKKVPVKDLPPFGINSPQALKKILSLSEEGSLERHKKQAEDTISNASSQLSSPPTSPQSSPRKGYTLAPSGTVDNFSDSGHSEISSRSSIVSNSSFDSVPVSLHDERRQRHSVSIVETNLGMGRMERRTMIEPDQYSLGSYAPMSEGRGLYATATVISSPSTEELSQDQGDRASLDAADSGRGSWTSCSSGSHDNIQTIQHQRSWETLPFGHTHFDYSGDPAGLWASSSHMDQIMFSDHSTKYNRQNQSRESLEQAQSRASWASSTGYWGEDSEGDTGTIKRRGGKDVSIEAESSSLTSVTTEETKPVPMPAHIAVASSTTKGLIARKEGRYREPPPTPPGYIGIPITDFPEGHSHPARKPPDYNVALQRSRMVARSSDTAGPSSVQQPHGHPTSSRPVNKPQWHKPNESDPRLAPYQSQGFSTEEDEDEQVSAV
UniProt Q0JRZ9, sequence (Q0JRZ9 whole entry): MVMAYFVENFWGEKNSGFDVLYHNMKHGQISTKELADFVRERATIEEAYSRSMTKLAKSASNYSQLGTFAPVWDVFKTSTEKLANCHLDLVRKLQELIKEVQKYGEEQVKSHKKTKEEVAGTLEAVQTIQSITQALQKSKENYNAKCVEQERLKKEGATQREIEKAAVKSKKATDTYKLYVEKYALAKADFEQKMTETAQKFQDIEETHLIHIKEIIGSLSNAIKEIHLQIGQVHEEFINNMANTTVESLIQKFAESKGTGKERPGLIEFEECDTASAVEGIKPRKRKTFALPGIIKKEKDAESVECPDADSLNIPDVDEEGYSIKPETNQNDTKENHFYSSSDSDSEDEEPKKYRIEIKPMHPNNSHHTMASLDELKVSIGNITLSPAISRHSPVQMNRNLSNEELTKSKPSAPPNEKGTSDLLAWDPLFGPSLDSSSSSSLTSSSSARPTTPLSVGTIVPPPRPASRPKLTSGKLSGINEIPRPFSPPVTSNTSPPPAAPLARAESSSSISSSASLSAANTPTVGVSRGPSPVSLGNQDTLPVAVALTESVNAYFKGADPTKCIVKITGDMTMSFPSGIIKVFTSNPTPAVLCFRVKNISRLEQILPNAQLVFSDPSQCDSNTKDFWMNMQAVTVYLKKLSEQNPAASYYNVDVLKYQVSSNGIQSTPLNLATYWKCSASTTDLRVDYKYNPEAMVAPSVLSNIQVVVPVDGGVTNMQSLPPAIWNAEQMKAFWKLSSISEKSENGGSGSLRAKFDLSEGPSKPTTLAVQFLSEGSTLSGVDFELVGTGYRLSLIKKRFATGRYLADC
UniProt Q9BTV4, sequence (Q9BTV4 whole entry): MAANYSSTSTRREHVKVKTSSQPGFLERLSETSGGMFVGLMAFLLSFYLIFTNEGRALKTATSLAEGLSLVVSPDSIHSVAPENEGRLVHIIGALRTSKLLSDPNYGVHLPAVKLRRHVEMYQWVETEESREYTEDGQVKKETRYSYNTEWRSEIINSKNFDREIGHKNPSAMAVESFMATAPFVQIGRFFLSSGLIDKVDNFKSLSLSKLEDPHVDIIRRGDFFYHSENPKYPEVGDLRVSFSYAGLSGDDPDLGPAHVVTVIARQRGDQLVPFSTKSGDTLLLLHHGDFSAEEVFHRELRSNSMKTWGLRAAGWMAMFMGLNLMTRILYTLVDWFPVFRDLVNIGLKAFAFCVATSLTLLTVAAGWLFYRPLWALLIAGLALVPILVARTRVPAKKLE
UniProt P82909, sequence (P82909 whole entry): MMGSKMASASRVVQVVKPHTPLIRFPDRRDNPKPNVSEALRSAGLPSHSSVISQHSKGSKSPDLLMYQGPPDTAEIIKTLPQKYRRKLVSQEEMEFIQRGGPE

These targets were tested with O=[As]([O-])(O)O.[K+] [potassium arsenate] (assay: thermal stability z-score vs DMSO; higher = more thermally stabilized by treatment). Details: HeLa; arsenate concentration 1 mM.
Description: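 Cellular thermal proteome profiling in HeLa cells treated with 1 mM arsenate for 1 h (DMSO pretreatment), heated to ten temperatures (37-66.3 °C). Soluble protein was quantified by TMT mass spectrometry relative to DMSO controls; the thermal stability score was transformed to a z-score; mean of n = 3 experiments.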
For TBC1D23 (UniProt Q9NUY8), the thermal stability z-score was 0.407. With VAT1 (UniProt Q99536) the thermal stability z-score was 1.37. In the case of H2AFX (UniProt P16104), the thermal stability z-score was -0.415. In the case of OSBP2 (UniProt Q969R2), the thermal stability z-score was -0.124. INPP4A (UniProt Q96PE3) gave a thermal stability z-score of 0.221. In the case of E2F3 (UniProt O00716), the thermal stability z-score was -0.342. C3 (UniProt P01024) showed a thermal stability z-score of -0.371. Target AP3B1 (UniProt O00203) has a thermal stability z-score of 0.404. With WDR19 (UniProt Q8NEZ3) the thermal stability z-score was 0.81. With KDSR (UniProt Q06136) the thermal stability z-score was 0.275. MRPS36 (UniProt P82909) gave a thermal stability z-score of 0.55. FANCD2 (UniProt Q9BXW9) gave a thermal stability z-score of -0.953. Target PPP4R3A (UniProt Q6IN85) has a thermal stability z-score of -0.165. In the case of MB21D2 (UniProt Q8IYB1), the thermal stability z-score was 0.483. For APPBP2 (UniProt Q92624), the thermal stability z-score was -0.115. Target MAP2K1 (UniProt Q02750) has a thermal stability z-score of -0.118. For LMNA (UniProt P02545), the thermal stability z-score was -0.488. EIF4G3 (UniProt O43432) showed a thermal stability z-score of 0.0581. PSMC5 (UniProt P62195) showed a thermal stability z-score of -0.667. Work on TSEN34 (UniProt Q9BSV6) yielded a thermal stability z-score of -0.292. With TMEM43 (UniProt Q9BTV4) the thermal stability z-score was 0.701. RAPGEF2 (UniProt Q9Y4G8) gave a thermal stability z-score of -0.388. MON2 (UniProt Q7Z3U7) was tested, and the thermal stability z-score was 0.63. For MYL12A|MYL12B, the thermal stability z-score was -0.0176. In the case of TSFM (UniProt P43897), the thermal stability z-score was -0.0696. C11ORF98 (UniProt E9PRG8) gave a thermal stability z-score of -1.91. FCHO2 (UniProt Q0JRZ9) showed a thermal stability z-score of 0.405. For PPA2 (UniProt Q9H2U2), the thermal stability z-score was -0.244. MRPL1 (UniProt Q9BYD6) showed a thermal stability z-score of 0.374. ABCD3 (UniProt P28288) was tested, and the thermal stability z-score was -0.13.

Each target was assayed with NC(=O)CCCCC1CCSS1 [lipoamide] in the same assay as above. Details: HeLa; lipoamide concentration 100 µM; arsenate co-treatment: 1 mM arsenate 1 h.
Description: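 Cellular thermal proteome profiling in HeLa cells. Cells were treated with 100 µM lipoamide for 1 h, with or without 1 mM arsenate for a further 1 h, then heated to ten temperatures (37-66.3 °C), and soluble protein was quantified by TMT mass spectrometry relative to 0.1% DMSO controls. The thermal stability score (sum of log2 fold changes minus the abundance score) was transformed to a z-score; mean of n = 3 experiments.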
TBC1D23 (UniProt Q9NUY8) was tested, and the thermal stability z-score was -0.408. Target VAT1 (UniProt Q99536) has a thermal stability z-score of 0.819. Work on H2AFX (UniProt P16104) yielded a thermal stability z-score of -0.033. OSBP2 (UniProt Q969R2) showed a thermal stability z-score of 0.192. With INPP4A (UniProt Q96PE3) the thermal stability z-score was 0.395. For E2F3 (UniProt O00716), the thermal stability z-score was -0.295. For C3 (UniProt P01024), the thermal stability z-score was -1.67. Target AP3B1 (UniProt O00203) has a thermal stability z-score of -0.0343. In the case of WDR19 (UniProt Q8NEZ3), the thermal stability z-score was -0.121. Target KDSR (UniProt Q06136) has a thermal stability z-score of 0.0293. With MRPS36 (UniProt P82909) the thermal stability z-score was 0.32. FANCD2 (UniProt Q9BXW9) gave a thermal stability z-score of -0.812. PPP4R3A (UniProt Q6IN85) gave a thermal stability z-score of 0.268. MB21D2 (UniProt Q8IYB1) gave a thermal stability z-score of 0.116. APPBP2 (UniProt Q92624) showed a thermal stability z-score of -0.18. Target MAP2K1 (UniProt Q02750) has a thermal stability z-score of -0.382. LMNA (UniProt P02545) showed a thermal stability z-score of 0.567. Work on EIF4G3 (UniProt O43432) yielded a thermal stability z-score of -0.341. With PSMC5 (UniProt P62195) the thermal stability z-score was -0.299. TSEN34 (UniProt Q9BSV6) gave a thermal stability z-score of -1.1. TMEM43 (UniProt Q9BTV4) gave a thermal stability z-score of -3.42. RAPGEF2 (UniProt Q9Y4G8) was tested, and the thermal stability z-score was 0.309. For MON2 (UniProt Q7Z3U7), the thermal stability z-score was 0.0206. For MYL12A|MYL12B, the thermal stability z-score was 0.352. In the case of TSFM (UniProt P43897), the thermal stability z-score was -0.91. Target C11ORF98 (UniProt E9PRG8) has a thermal stability z-score of -0.688. FCHO2 (UniProt Q0JRZ9) was tested, and the thermal stability z-score was -0.472. With PPA2 (UniProt Q9H2U2) the thermal stability z-score was -1.03. With MRPL1 (UniProt Q9BYD6) the thermal stability z-score was -0.253. Work on ABCD3 (UniProt P28288) yielded a thermal stability z-score of -0.0141.

Same assay, conditions: HeLa; lipoamide concentration 100 µM; arsenate co-treatment: none
With TBC1D23 (UniProt Q9NUY8) the thermal stability z-score was -0.264. With VAT1 (UniProt Q99536) the thermal stability z-score was 0.762. H2AFX (UniProt P16104) showed a thermal stability z-score of -0.0884. Work on OSBP2 (UniProt Q969R2) yielded a thermal stability z-score of 0.026. For INPP4A (UniProt Q96PE3), the thermal stability z-score was 0.319. Target E2F3 (UniProt O00716) has a thermal stability z-score of -0.154. Work on C3 (UniProt P01024) yielded a thermal stability z-score of -1.75. AP3B1 (UniProt O00203) was tested, and the thermal stability z-score was 0.0807. WDR19 (UniProt Q8NEZ3) showed a thermal stability z-score of 0.369. Target KDSR (UniProt Q06136) has a thermal stability z-score of 0.264. MRPS36 (UniProt P82909) was tested, and the thermal stability z-score was 0.0105. FANCD2 (UniProt Q9BXW9) showed a thermal stability z-score of -0.0726. Work on PPP4R3A (UniProt Q6IN85) yielded a thermal stability z-score of 0.184. Target MB21D2 (UniProt Q8IYB1) has a thermal stability z-score of -0.198. For APPBP2 (UniProt Q92624), the thermal stability z-score was 0.0712. With MAP2K1 (UniProt Q02750) the thermal stability z-score was -0.187. LMNA (UniProt P02545) showed a thermal stability z-score of 0.493. EIF4G3 (UniProt O43432) was tested, and the thermal stability z-score was 0.15. In the case of PSMC5 (UniProt P62195), the thermal stability z-score was -0.397. With TSEN34 (UniProt Q9BSV6) the thermal stability z-score was 0.117. In the case of TMEM43 (UniProt Q9BTV4), the thermal stability z-score was -3.08. Work on RAPGEF2 (UniProt Q9Y4G8) yielded a thermal stability z-score of -0.293. MON2 (UniProt Q7Z3U7) was tested, and the thermal stability z-score was 0.307. Target MYL12A|MYL12B has a thermal stability z-score of 0.436. In the case of TSFM (UniProt P43897), the thermal stability z-score was -0.179. Target C11ORF98 (UniProt E9PRG8) has a thermal stability z-score of -0.534. Work on FCHO2 (UniProt Q0JRZ9) yielded a thermal stability z-score of -0.218. Work on PPA2 (UniProt Q9H2U2) yielded a thermal stability z-score of -0.335. MRPL1 (UniProt Q9BYD6) gave a thermal stability z-score of -0.245. For ABCD3 (UniProt P28288), the thermal stability z-score was -0.0329.
